Assays:
Assay type in all cases: in vivo
[1] = tested on: C57/BL6 mice; assay: Tracer recovery from nasal mucosa after single intranasal dose and ventricular injection of fluorescent tracer; conditions: single inhalation, lower doses, p<0.05 relative to controls
[2] = tested on: C57/BL6 mice; assay: as above; conditions: single intranasal dose; for increase in nasal tracer recovery relative to vehicle-treated controls: commercial concentrations, p<0.05 vs control; for nasal tracer recovery at higher doses: higher doses than the commercial concentration (5x or 10x); for increase in tracer recovery from the nasal mucosa relative to control animals: p<0.001 compared to control
Description: In another exemplary method, compositions including prostaglandin F2-alpha analogues were used to analyze increased lymphatic channel contractility in the nasal mucosa of experimental animals. In this example, prostaglandin F2-alpha analogues latanoprost, bimatoprost, travoprost, latanoprostene bunod, and tafluprost were administered via an intranasal vehicle into the nasal mucosa of mice.
In this example, a total of 67 animals were studied using a scaled dosing technique in which each prostaglandin analog was evaluated at its commercial ophthalmic concentration as well as one or two more concentrated forms (either 5× or 10×).
Commercially available prostaglandin F2-alpha analogues used in the treatment of glaucoma were selected for evaluation; these included latanoprost, bimatoprost, travoprost, latanoprostene bunod, and tafluprost. Initial experiments were conducted with topical ophthalmic preparations, and pharmaceutical grade drug also was obtained and placed into solution for use in a more concentrated form. Agents were solubilized in DMSO and diluted in normal saline.
For single inhalation trails described herein, awake adult male and female C57/BL6 mice (approx. 6 weeks of age) were administered intranasal vehicle (10% DMSO) or drug solution (total 8 μl) by placing droplets (1-2 μl) of liquid at the nares using a micropipette and allowing the animal to inhale the liquid spontaneously. Anesthesia with ketamine and xylazine was administered via intraperitoneal injection, and anesthetized animals were placed within a stereotaxic apparatus. For multiday studies, intranasal drug administration was performed on awake animals daily using the same procedure described above. Approximately 6 hours after the third daily dose was given, animals were anesthetized and placed within a stereotaxic apparatus. A midline incision was created along the scalp, and the right lateral ventricle was targeted with placement of a 26-gauge needle to a depth of 3 mm into the brain at a position 1 mm lateral and 0.3 mm anterior to bregma. A 5 μl intraventricular injection of fluorescent tracer (AlexaFluor^647-ovalbumin solution) was delivered at a rate of 100 nl/seconds using a Hamilton syringe and an electric pump. Animals remained anesthetized for the 1 hour recovery period post injection and were then euthanized with a lethal overdose of ketamine followed by secondary cervical dislocation. Nasal turbinates were harvested, and tissue extracts were analyzed by ELISA.
The experimental technique was validated by evaluating recovery of fluorescent tracer from nasal mucosa after ventricular injection in the absence of intranasal treatment. Time points for tissue harvest were selected based on increased recovery at 60 minutes versus 30 minutes, with later harvest raising concern for potential contamination of specimens by hematogenous CSF absorption and recirculation of tracer throughout the tissues via arterial flow.
Statistical analyses were conducted with Stata using either two-tailed Student's t-tests or ANOVA RM with Dunnet's post hoc analysis.

[3] = tested on: C57/BL6 mice; assay: Tracer recovery from nasal turbinates after intranasal dosing once a day for three consecutive days; conditions: 0.1, 0.5 or 1 mg/ml once a day for 3 days
Description: In another example, an additional 14 animals were administered inhaled doses of latanoprost (either 0.1, 0.5, or 1 mg/ml) once a day for three (3) consecutive days. Nasal turbinates were isolated 1 hour after ventricular tracer injection and between 7 and 9 hours after the final latanoprost dose was given intranasally according to the exemplary methods described herein.
For single inhalation trails described herein, awake adult male and female C57/BL6 mice (approx. 6 weeks of age) were administered intranasal vehicle (10% DMSO) or drug solution (total 8 μl) by placing droplets (1-2 μl) of liquid at the nares using a micropipette and allowing the animal to inhale the liquid spontaneously. Anesthesia with ketamine and xylazine was administered via intraperitoneal injection, and anesthetized animals were placed within a stereotaxic apparatus. For multiday studies, intranasal drug administration was performed on awake animals daily using the same procedure described above. Approximately 6 hours after the third daily dose was given, animals were anesthetized and placed within a stereotaxic apparatus. […] Nasal turbinates were harvested, and tissue extracts were analyzed by ELISA. […]

| SMILES | tracer recovery relative to controls, fluorometric analysis of nasal turbinate homogenates (words, FIG. 3) [1] | increase in nasal tracer recovery relative to vehicle-treated controls [2] | nasal tracer recovery at higher doses [2] | effect on nasal tracer recovery at any tested dose [2] | other results |
| --- | --- | --- | --- | --- | --- |
| CCNC(=O)CCC/C=C\C[C@@H]1[C@@H](/C=C/[C@@H](O)CCc2ccccc2)[C@H](O)C[C@@H]1O [bimatoprost] | Some enhanced tracer recovery relative to controls | approximately 1.5 fold | did not appear to improve at higher doses | – | – |
| CC(C)OC(=O)CCC/C=C\C[C@@H]1[C@@H](CC[C@@H](O)CCc2ccccc2)[C@H](O)C[C@@H]1O [latanoprost, isopropyl (Z)-7-[(1R,2R,3R,5S)-3,5-dihydroxy-2-[(3R)3-hydroxy-5-phenylpentyl]-cyclopentyl] hept-5-enoate] | – | – | – | – | increase in tracer recovery from the nasal mucosa relative to control animals ([2]; 0.5 mg/ml solution, after 60 minutes): approximately 10 fold; increase in tracer recovery from the nasal mucosa relative to control animals ([2]; 1 mg/ml solution, after 60 minutes): approximately 10 fold; dose dependence of the increase in tracer recovery from the nasal mucosa ([2]; 0.1 to 1 mg/ml, after 60 minutes): semi dose-dependent increase; tracer recovery compared with all tested prostaglandin analogs and 0.1 mg/ml latanoprost ([2]; concentrated 0.5 mg/ml and 1 mg/ml): significant increase in tracer recovery over all tested prostaglandin analogs and 0.1 mg/ml latanoprost; increased tracer recovery vs control ([2]; standard ophthalmic dose 0.1 mg/ml, p<0.01 vs control): approximately 6 fold; difference in tracer recovery amongst the 3 doses [3]: no statistically significant difference; increase in tracer recovery relative to controls ([3]; turbinates isolated 1 hour after tracer injection, 7 to 9 hours after final dose, p<0.05): ~3 fold |
| O=C(CCC/C=C\C[C@@H]1[C@@H](CC[C@@H](O)CCc2ccccc2)[C@H](O)C[C@@H]1O)OCCCCO[N+](=O)[O-] [latanoprostene bunod] | – | – | – | Neither travoprost nor latanoprostene bunod demonstrated a measurable effect | – |
| CC(C)OC(=O)CCC/C=C\C[C@@H]1[C@@H](/C=C/C(F)(F)COc2ccccc2)[C@H](O)C[C@@H]1O [tafluprost] | Some enhanced tracer recovery relative to controls | approximately 1.5 fold | did not appear to improve at higher doses | – | – |
| CC(C)OC(=O)CCC/C=C\C[C@@H]1[C@@H](/C=C/[C@@H](O)COc2cccc(C(F)(F)F)c2)[C@H](O)C[C@@H]1O [travoprost] | – | – | – | Neither travoprost nor latanoprostene bunod demonstrated a measurable effect | – |
